The results in this text go back to patent US6969719B2, “Polycyclic guanine phosphodiesterase V inhibitors” (Schering Corporation, priority 2001, dated 2005).

pIC50: −log10 of the molar value. Several values for one entry are separate records, joined by “and”; a condition that tells them apart may be missing. Identical values can stand only once.

For the first assay, the target named is PDE V (Homo sapiens, UniProt O76074). Nature of the assay: PDE V isoenzyme inhibition (IC50). Format: biochemical. The note with it: concentration required to provide 50% inhibition of PDE V. The text has this: The compounds of the invention can be useful for inhibiting PDE V isoenzymes. Isoenzyme activities and isoenzyme selectivities for particular compounds can be evaluated in a number of ways.
The pIC50 is −log10 of the IC50, conventionally taken in molar units. Molecule `CCN1C(=O)c2c(nc(NC3CCOCC3)n2Cc2ccc(O)c(Cl)c2)N2CCN=C12` [Compound 2] gave a pIC50 of more than 8.10. `CCN1C(=O)c2c(nc(OC)n2Cc2ccc(OC)c(C#N)c2)N2C[C@@H](Cc3ccccc3)N=C12` [Compound 34]: the negative-log IC50 (pIC50) was ≥ 8.00 and ~8.00. On the same count and under the same terms, the figure for `CCN1C(=O)c2c(nc(NC3CCOCC3)n2Cc2ccc(OC)c(Cl)c2)N2CCN=C12` [Compound 16] is ≥ 8.00 and ≥ 8.30 and ≥ 8.22 and ~8.82; for `CCN1C(=O)c2c(nc(NC3CCCC3)n2Cc2ccc(OC)c(Cl)c2)N2CCN=C12` [Compound 43] it is not below 8.30; for `CCN1C(=O)c2c(nc(OCc3ccccc3)n2Cc2ccc(O)c(Cl)c2)N2C[C@@H](Cc3ccccc3)N=C12` [Compound 13] it is not below 8.30. `CCN1C(=O)c2c(nc(Br)n2Cc2cc(Cl)c3c(c2)CCO3)N2C[C@@H](Cc3ccccc3)N=C12` [Compound 15] had a pIC50 not below 8.30. On the same count and under the same terms, the figure for `CCN1C(=O)c2c(nc(NC3CCOCC3)n2Cc2ccc(OC)c(Cl)c2)N2CCCN=C12` [Compound 21] is not below 8.00; for `CCN1C(=O)c2c(nc(Br)n2Cc2cc(Br)c3c(c2)CCO3)N2C[C@@H](Cc3ccccc3)N=C12` [Compound 3] it is not below 8.00; for `CCN1C(=O)c2c(nc(NC3CCOCC3)n2Cc2ccc(O)c(C)c2)N2CCN=C12` [Compound 30] it is approximately 7.28.

Regarding `CCN1C(=O)c2c(nc(C#Cc3ccccc3)n2Cc2cc(Cl)c(OC)c(Cl)c2)N2CC3(CCCC3)N=C12` [Compound 44], the negative-log IC50 (pIC50) is not below 8.30. Still for that read-out and setting: as for `CCN1C(=O)c2c(nc(NC3CCSCC3)n2Cc2ccc(OC)c(Cl)c2)N2CCN=C12` [Compound 57], the figure is not below 8.00; as for `CCN1C(=O)c2c(nc(C#Cc3ccccc3)n2Cc2ccc(O)c(Cl)c2)N2C[C@@H](Cc3ccccc3)N=C12` [Compound 19], not below 8.30.

`CCN1C(=O)c2c(nc(NC3CCCCC3)n2Cc2ccc(OC)c(Br)c2)N2C1=N[C@@H]1CCC[C@@H]12` [Compound 17] showed a negative-log IC50 (pIC50) not below 8.30. Still for that read-out and setting: the figure for `CCN1C(=O)c2c(nc(NC3CCCCC3)n2Cc2ccc(O)c(Cl)c2)N2C1=N[C@@H]1CCC[C@@H]12` [Compound 5] is not below 8.22; for `CCN1C(=O)c2c(nc(NC3CCOCC3)n2Cc2ccc(OC)c(Br)c2)N2CCN=C12` [Compound 18] it is not below 8.30.

As for `CCN1C(=O)c2nc(C#Cc3ccccc3)n(Cc3ccc(O)cc3)c2N2CC3(CCCC3)N=C12` [Compound 22], the negative-log IC50 (pIC50) is not below 8.30.

For the molecule `CCN1C(=O)c2c(nc(NC3CCCCC3)n2Cc2ccc(OC)c(Cl)c2)N2CCN=C12` [Compound 42], the pIC50 is not below 8.30. `CCN1C(=O)c2c(nc(NC3CCOCC3)n2Cc2cc(Br)c3c(c2)CCO3)N2CCN=C12` [Compound 36] had a pIC50 of approximately 7.74. With `CCN1C(=O)c2c(nc(NC3CCOCC3)n2Cc2cc(Cl)c3c(c2)CCO3)N2CCN=C12` [Compound 35], the pIC50 was approximately 7.74. The same measure, in the same setting: as for `CCN1C(=O)c2c(nc(C(=O)OC)n2Cc2cc(Cl)c3c(c2)CCO3)N2C[C@@H](Cc3ccccc3)N=C12` [Compound 4], the figure is not below 8.22. With `CCN1C(=O)c2c(nc(NC3CCOCC3)n2Cc2ccc(OC)c(Br)c2)N2CCCN=C12` [Compound 20], the pIC50 is not below 8.30. `CCN1C(=O)c2c(nc(NC3CCCCC3)n2Cc2ccc(O)c(Br)c2)N2C[C@@H](Cc3ccccc3)N=C12` [Compound 9] showed a negative-log IC50 (pIC50) not below 8.30. Still for that read-out and setting: the figure for `CCN1C(=O)c2c(nc(C(N)=O)n2Cc2cc(Cl)c3c(c2)CCO3)N2C[C@@H](Cc3ccccc3)N=C12` [Compound 10] is not below 8.30; for `CCN1C(=O)c2c(ncn2Cc2cc(Cl)c3c(c2)CCO3)N2C[C@@H](Cc3ccccc3)N=C12` [Compound 6] it is not below 8.30. `CCN1C(=O)c2c(nc(N[C@@H]3CC[C@H](O)C3)n2Cc2ccc(OC)c(Br)c2)N2CCN=C12` [Compound 59]: the pIC50 is not below 8.00. Still for that read-out and setting: as for `CCN1C(=O)c2c(nc(NC3CCCCC3)n2Cc2ccc(O)c(Br)c2)N2C1=N[C@@H]1CCC[C@@H]12` [Compound 12], the figure is not below 8.30; as for `CCN1C(=O)c2c(nc(C=NO)n2Cc2ccc(O)c(Cl)c2)N2C[C@@H](Cc3ccccc3)N=C12` [Compound 11], not below 8.30; as for `CCN1C(=O)c2c(nc(NC3CCCCC3)n2Cc2ccc(OC)c(Br)c2)N2CCN=C12` [Compound 14], not below 8.30. For `CCN1C(=O)c2c(nc(NC3CCOCC3)n2Cc2ccc(O)c(Br)c2)N2CCN=C12` [Compound 1], the pIC50 is not below 8.00. Regarding `CCN1C(=O)c2c(nc(C(N)=O)n2Cc2cc(Br)c3c(c2)CCO3)N2C[C@@H](Cc3ccccc3)N=C12` [Compound 8], the negative logarithm of the IC50 (pIC50) is not below 8.30.

In the case of `CCN1C(=O)c2nc(C#Cc3ccccc3)n(Cc3ccc(OC(C)=O)cc3)c2N2CC3(CCCC3)N=C12` [Compound 7], the negative-log IC50 (pIC50) is not below 8.30. On the same count and under the same terms, the figure for `CCN1C(=O)c2c(nc(N[C@@H]3CCC[C@H]3O)n2Cc2ccc(OC)c(Br)c2)N2C1=NCC2C` (stereo partly drawn) [Compound 56] is not below 8.30. Same read-out and setting: the figure for `CCOc1nc2c(n1Cc1ccc(O)c(Br)c1)C(=O)N(CC)C1=N[C@H](Cc3ccccc3F)CN12` [Compound 54] is not below 8.30; for `CCN1C(=O)c2c(nc(NC3CCSCC3)n2Cc2ccc(OC)c(Br)c2)N2CCN=C12` [Compound 58] it is not below 8.30.

Still in this assay, the particulars now being: enzyme selectivity, PDE V relative to PDE VI.
With `CCN1C(=O)c2c(nc(NC3CCOCC3)n2Cc2ccc(O)c(Cl)c2)N2CCN=C12` [Compound 2], the “ratio of PDE VI IC50/PDE V IC50” value is reported as more than 600.

Take `CCN1C(=O)c2c(nc(NC3CCOCC3)n2Cc2ccc(O)c(C)c2)N2CCN=C12` [Compound 30]: the “ratio of PDE VI IC50/PDE V IC50” value was more than 190.
